Reference: patent US20240245677A1, “SELECTED COMPOUNDS FOR TARGETED DEGRADATION OF BRD9” (C4 THERAPEUTICS, INC., priority 2021, published 2024)
Where two headings read alike, the source gives them in different places.

How the values were obtained:
[1] = test system: Yamato-SS synovial sarcoma cell line; experiment: Global proteomics in Yamato-SS cells; format: cell-based, human; conditions: 100 nM, 4 hours; for Emax at 0.1 µM: Homo sapiens
Protocol: Global protein expression was performed in Yamato-SS and HSSYII synovial sarcoma cell lines after 4-hour treatment with Compound 1 (100 nM). The Yamato-SS cell line was provided by the RIKEN BRC through the National BioResource Project of the MEXT/AMED, Japan (cat #RCB3577), and the HS-SY-II cell line was provided by the RIKEN BRC through the National BioResource Project of the MEXT/AMED, Japan (cat #RCB2231).
Both Yamato-SS and HSSYII cell lines were treated with Compound 1 at 100 nM for 4 hours and analyzed by multiplexed quantitative proteomics. The x-axis illustrates the totality of the proteomics data and is labeled as fold change (FC) of Compound 1 vs vehicle in a Log 2 transformation scale. The statistical significance (T-test of treated vs. DMSO with Benjamini-Hochberg correction applied) of the observed changes is shown in the y-axis as negative Log 10 of the P-value. The horizontal dashed line marks the statistical significance (P-value ≤0.001) and the vertical line marks fold change ≥2.

BRD4 = target: T1, BRD4 (Homo sapiens, UniProt O60885); experiment: BRD4 HiBiT degradation assay in HEK293T.92 cells; format: cell-based
T1 construct: endogenously expressing BRD4 with HiBiT fusion tag via CRISPR; endogenous in cells; host or cells: HEK293T.92 (made in-house from 293T, ATCC CRL-3216)
Source text: This assay evaluates the degradation of Bromodomain Containing 4 (BRD4) induced by treatment with Compound 1 as measured by luminescence using Nano-Glo® HiBiT Lytic Assay System in HEK293 cells CRISPR-edited to endogenously express HiBiT tagged BRD4.
Nano-Glo® HiBiT Lytic Assay System was purchased from Promega (Catalog No. N3050, Madison, WI, USA). 293T cells were obtained from ATCC (Catalog No. CRL-3216, Manassas, VA, USA), and maintained in Dulbecco's modified Eagle medium (DMEM) (Catalog No. 12430112, ThermoFisher Scientific, Waltham, MA, USA) supplemented with 10% fetal bovine serum (FBS) (Catalog No. 16000-044, Gibco, Grand Island, NY, USA) at 37° C. in an atmosphere of 5% CO2 in air. The HiBiT polypeptide tag was introduced into the N-terminus of the endogenous BRD4 locus by CRISPR-Cas9 to produce the modified HEK293T.92 cell line. The HiBiT polypeptide allows reconstitution of NanoBiT enzyme following cell lysis and addition of the complementing LgBiT polypeptide that activates substrate to produce a luminescent signal that is directly proportional to the amount of HiBiT-tagged BRD4.
The HEK293T.92 cells were routinely sub-cultured to maintain cell density between 30-80% confluence, not to exceed 20 passages. Cells were washed with PBS pH 7.4 (Catalog No. 10010049, ThermoFisher Scientific, Waltham, MA, USA), trypsinized for 5 minutes at 37° C., and resuspended in fresh growth media without phenol red. An aliquot was diluted 2× with Trypan Blue solution 0.4% (Catalog No. 15250061, ThermoFisher Scientific, Waltham, MA, USA) and cell count determined. Cell concentration was adjusted with growth media without phenol red to 5.0×10^5 cells/mL.
Compound 1 was prepared by dissolving neat compounds in DMSO (Catalog No. D8418, Sigma-Aldrich, Inc., St. Louis, MO, USA) to generate 10 mM stock solution and stored at −20° C. The 10 mM DMSO stock solution of Compound 1 was serially diluted (half log) in DMSO to generate 11-point dose series (10000, 3165, 1000, 316, 100, 31.6, 10, 3.2, 1, 0.32, 0.1 μM) in an acoustic ready 384-well low dead volume microplate (Catalog No. LP-0200, Beckman Coulter Life Sciences, Indianapolis, IN, USA). Using an Echo 550 Acoustic Liquid Handler (Beckman Coulter Life Sciences, Indianapolis, IN, USA), 30 nL of serially diluted compound solutions were dispensed in duplicate to each 384-well TC-treated microplate (Catalog No. 3571, Corning, Glendale, CA, USA). 30 nL DMSO was transferred to all control wells.
30 μL of 293T.92 cells suspended in growth media without phenol red at 5.0×10^5 cells/mL (15000 cells/well) were dispensed using a Multidrop Combi Reagent Dispenser (Catalog No. 5840300, ThermoFisher Scientific, Waltham, MA, USA) to each well of columns 1-23 of 384-well TC-treated microplates containing duplicate concentration range of test compounds and DMSO controls. 30 μL of media was dispensed to column 24 as background positive control (P). Plates were spun briefly at 1000 rpm and cells were incubated at 37° C., 5% CO2 for 24 hours. Final concentration of DMSO was 0.1% for all samples.
Cellular BRD4 protein level was determined based on quantification of HiBiT using Nano-Glo® HiBiT Lytic Assay System (Promega). 30 μL Nano-Glo Lytic Assay reagents were added to each well and luminescence was acquired on EnVision® Multilabel Reader (Catalog No. 2104-0010, Perkin Elmer Inc., Dumfries, VA, USA). Cells treated in the absence of the test compound (0.1% DMSO vehicle) were the negative control (N) and wells containing only media were the positive control (P).
Percent response of compound-treated samples (T) were calculated by normalizing to the DMSO treated negative (N) controls on the same microtiter plate after background (i.e., positive control) signal subtraction:
Curve fit and DC50 (concentration that degrades 50% BRD4) determination was performed by 4 parametric logistic fit analysis using software such as GraphPad Prism software (GraphPad Software, LLC, San Diego, CA, USA). […]

SMILES: COc1cc(-c2cn(C)c(=O)c(C)c2C)cc(OC)c1CN1CC[C@H](N2CCN(c3ccc(N[C@H]4CCC(=O)NC4=O)cc3F)CC2)C(F)(F)C1 [Compound 1, (S)-3-((4-(4-((S)-1-(2,6-dimethoxy-4-(1,4,5-trimethyl-6-oxo-1,6-dihydropyridin-3-yl)benzyl)-3,3-difluoropiperidin-4-yl)piperazin-1-yl)-3-fluorophenyl)amino)-piperidine-2,6-dione]
- ADAMST1 protein level decrease vs DMSO control [1]: 66.3%
- BRD9 protein level decrease vs DMSO control [1]: 66.5%
- Emax at 0.1 µM ([1]; read-out: ADAMST1 Emax): 33.7%
- Emax at 0.1 µM ([1]; read-out: BRD9 Emax): 33.5%
- % BRD4 Remaining Relative to Vehicle Control at 24 hr, Mean (BRD4; 0.101 nM): 96.1%
- % BRD4 Remaining Relative to Vehicle Control at 24 hr, Mean (BRD4; 0.318 nM): 96.3%
- % BRD4 Remaining Relative to Vehicle Control at 24 hr, Mean (BRD4; 1.01 nM): 96.3%
- % BRD4 Remaining Relative to Vehicle Control at 24 hr, Mean (BRD4; 3.17 nM): 96.1%
- % BRD4 Remaining Relative to Vehicle Control at 24 hr, Mean (BRD4; 10.0 nM): 96.0%
- % BRD4 Remaining Relative to Vehicle Control at 24 hr, Mean (BRD4; 31.7 nM): 96.4%
- % BRD4 Remaining Relative to Vehicle Control at 24 hr, Mean (BRD4; 100 nM): 95.8%
- % BRD4 Remaining Relative to Vehicle Control at 24 hr, Mean (BRD4; 317 nM): 92.5%
- % BRD4 Remaining Relative to Vehicle Control at 24 hr, Mean (BRD4; 1000 nM): 89.2%
- % BRD4 Remaining Relative to Vehicle Control at 24 hr, Mean (BRD4; 3161 nM): 84.4%
- % BRD4 Remaining Relative to Vehicle Control at 24 hr, Mean (BRD4; 9990 nM): 78.1%
- DC50 (BRD4; BRD4-HiBiT, 293T.92 cells, 24 hours, read-out: Mean DC50): > 10 µM
- Emax (BRD4; BRD4-HiBiT, 293T.92 cells, 24 hours, read-out: Mean Emax (%) ± SD): 78.1 ± 3.41%
- effect on the degradation of BRD4 (BRD4; concentrations up to 10 μM, 24 hours): no significant effect
- DC50 (BRD4; summary statement, read-out: DC50 against BRD4): > 1 µM
